These results are taken from patent US20220098159A1, “CARBAMATE DERIVATIVES AND USES THEREOF” (Nodthera Limited, priority 2019, published 2022).

The test system of the test is IL-1β release upon NLRP3 activation in peripheral blood mononuclear cells (PBMC). The test is described as follows: PBMC IC50 determination assay (inhibition of IL-1β release upon NLRP3 activation). Type of test: cell-based. To be noted: Homo sapiens; for pIC50: PBMC from buffy coats, LPS 3 h, compound 30 min, then ATP (5 mM) or nigericin (10 μM) 1 h, IL-1β in media by ELISA (Protocol A) or HTRF (Protocol B), read-out: Average PBMC IC50; for IC50: PBMC, read-out: Average PBMC IC50 (μM). Here is the method: The compounds of the present disclosure were tested for their inhibitory activity against IL-1β release upon NLRP3 activation in peripheral blood mononuclear cells (PBMC).
Protocol A. PBMC were isolated from buffy coats by density gradient centrifugation on Histopaque-1077 (Sigma, cat no. 10771). Isolated cells were seeded into the wells of a 96-well plate and incubated for 3 h with lipopolysaccharide (LPS). Following medium exchange, the compounds of the present disclosure were added (a single compound per well) and the cells were incubated for 30 min. Next, the cells were stimulated either with ATP (5 mM) or nigericin (10 μM) for 1 h and the cell culture media from the wells were collected for further analysis.
The release of IL-1β into the media was determined by a quantitative detection of IL-1β in the media using an IL-1β enzyme-linked immunosorbent assay (ELISA) Ready-SET-Go!, eBioscience cat. No. 88-7261-88. Briefly, in a first step, high affinity binding plates (Corning, Costar 9018 or NUNC Maxisorp Cat No. 44-2404) were coated overnight at 4° C. with specific capture antibody included in the kit (anti-human IL-1β ref. 14-7018-68). Subsequently, plates were blocked with blocking buffer for 1 h at room temperature (rt) and after washing with a buffer (PBS with 0.05% Tween-20) incubated with protein standard and culture media. After 2 h of incubation at rt, plates were washed and incubated with biotinylated detection antibody included in the kit (anti-human IL-1β Biotin ref. 33-7110-68) for 1 h at rt. Plates were washed and incubated with HRP-streptavidin for 30 min at rt and washed again. The signal was developed after addition of 3,3′,5,5′-tetramethylbenzidine-peroxidase (TMB) until colour appeared and the reaction was stopped by 2 M H2SO4. A microplate spectrophotometer (BioTek) was used to detect signals with 450 nm. The detection range of IL-1β ELISA was 2-150 ng/ml.
Protocol B. PBMC were isolated from buffy coats by density gradient centrifugation on Histopaque-1077 (Sigma, cat no. 10771). Isolated cells were seeded into the wells (280,000 cells/well) of a 96-well plate and incubated for 3 h with lipopolysaccharide (LPS, 1 μg/ml diluted 1000× from a 1 mg/ml stock solution). The compounds of the present disclosure were added (a single compound per well) and the cells were incubated for 30 min. Next, the cells were stimulated with ATP (5 mM final concentration diluted 20× from a 100 mM stock solution) for 1 h and the cell culture media from the wells were collected for further analysis.
The release of IL-1β into the media was determined by quantitative detection of IL-1β in the media using HTRF®, CisBio cat. No. 62HIL1BPEH. Briefly, cell culture supernatant were dispensed directly into the assay plate containing antibodies labelled with the HTRF® donor and acceptor. A microplate spectrophotometer (BMG) was used to detect signals at 655 nm and 620 nm. The detection range of IL-1β HTRF® was 39-6500 pg/ml.

pIC50: −log10 of the molar value. Where two headings read alike, the source gives them in different places.

On to `CC(C)OC(=O)C(Cc1ncccn1)OC(=O)NC(C)c1ccc(C(F)(F)F)cc1Cl` (centres unmarked) [Compound 16, Isopropyl 2-[1-[2-chloro-4-(trifluoromethyl)phenyl]ethylcarbamoyloxy]-3-pyrimidin-2-yl-propaneate], for which the negative-log IC50 (pIC50) – broadly, the IC50 on a negative log10 scale, so that one unit is a factor of ten – was above 6.00.
On the same count and under the same terms, for `CC(C)OC(=O)[C@@H](Cn1cncn1)OC(=O)NC(C)c1ncc(C(F)(F)F)cn1` (stereo partly drawn) [Compound 18, Propan-2-yl (2R)-3-(1H-1,2,4-triazol-1-yl)-2-[({1-[5-(trifluoromethyl)pyrimidin-2-yl]ethyl}carbamoyl)oxy]propanoate] the value was 5.00 to 5.52.
Consider `CC(C)OC(=O)[C@@H](Cn1cncn1)OC(=O)N[C@@H](C)c1ccc(C(C)C)cc1` [Compound 13, Propan-2-yl (2R)-2-({[(1S)-1-[4-(propan-2-yl)phenyl]ethyl]carbamoyl}oxy)-3-(1H-1,2,4-triazol-1-yl)propanoate], for which the IC50 (in general, the concentration that gives 50% inhibition) is below 1 µM.
The same measure, in the same setting: with `CC(C)OC(=O)[C@@H](Cn1cncn1)OC(=O)N[C@@H](C)c1ccc(C2CC2)cc1` [Compound 10, Propan-2-yl (2R)-2-({[(1S)-1-(4-cyclopropylphenyl)ethyl]carbamoyl}oxy)-3-(1H-1,2,4-triazol-1-yl)propanoate] the figure was below 1 µM.
On to `CC(C)OC(=O)C(Cc1ncccn1)OC(=O)N[C@@H](C)c1ccc(Cl)cc1` (stereo partly drawn) [Compound 3, Propan-2-yl 2-({[(1S)-1-(4-chlorophenyl)ethyl]carbamoyl}oxy)-3-(pyrimidin-2-yl)propanoate], for which the pIC50 was above 6.00.
As for `CC(C)OC(=O)[C@@H](Cc1ncccn1)OC(=O)N[C@@H](C)c1ccc(C(F)(F)F)cc1` [Compound 23, Propan-2-yl (2R)-3-(pyrimidin-2-yl)-2-({[(1S)-1-[4-(trifluoromethyl)phenyl]ethyl]carbamoyl}oxy)propanoate], the pIC50 was above 6.00.
Still for that read-out and setting: with `Cc1cc(C(F)(F)F)ccc1C(C)NC(=O)OC(Cc1ncccn1)C(=O)OC(C)C` (centres unmarked) [Compound 20, Isopropyl 2-[1-[2-methyl-4-(trifluoromethyl)phenyl]ethylcarbamoyloxy]-3-pyrimidin-2-yl-propanoate] the figure was above 6.00; with `C[C@H](NC(=O)O[C@H](Cc1ncccn1)C(=O)O)c1ccc(C(F)(F)F)cc1` [Compound 24, (2R)-3-(Pyrimidin-2-yl)-2-({[(1S)-1-[4-(trifluoromethyl)phenyl]ethyl]carbamoyl}oxy)propanoic acid], 5.00 to 5.52.
Still for that read-out and setting: for `C[C@H](NC(=O)O[C@H](Cc1ncccn1)C(=O)O)c1ccc(C(F)(F)F)cc1Cl` [Compound 26, (2R)-2-({[(1S)-1-[2-Chloro-4-(trifluoromethyl)phenyl]ethyl]carbamoyl}oxy)-3-(pyrimidin-2-yl)propanoic acid] the value was 5.00 to 5.52.
`CCc1ccc([C@H](C)NC(=O)O[C@H](Cn2cncn2)C(=O)OC(C)C)cc1` [Compound 12, Propan-2-yl (2R)-2-({[(1S)-1-(4-ethylphenyl)ethyl]carbamoyl}oxy)-3-(1H-1,2,4-triazol-1-yl)propanoate]: the 50% inhibitory concentration (IC50) is below 1 µM.
For `CC(C)OC(=O)C(Cc1ncccn1)OC(=O)N[C@@H](C)c1ccc(C(F)(F)F)cc1` (stereo partly drawn) [Compound 5, Propan-2-yl 3-(pyrimidin-2-yl)-2-({[(1S)-1-[4-(trifluoromethyl)phenyl]ethyl]carbamoyl}oxy)propanoate], the pIC50 was above 6.00.
On to `CC(C)OC(=O)C(Cc1ncccn1)OC(=O)N[C@@H](C)c1ccc(Cl)c(Cl)c1` (stereo partly drawn) [Compound 2, Propan-2-yl 2-({[(1S)-1-(3,4-dichlorophenyl)ethyl]carbamoyl}oxy)-3-(pyrimidin-2-yl)propanoate], for which the IC50 lay in the range of 10 to 50 µM.
For the molecule `COc1cc(C(F)(F)F)ccc1C(C)NC(=O)OC(Cc1ncccn1)C(=O)OC(C)C` (centres unmarked) [Compound 19, Propan-2-yl 2-[({1-[2-methoxy-4-(trifluoromethyl)phenyl]ethyl}carbamoyl)oxy]-3-(pyrimidin-2-yl)propanoate], the pIC50 is above 6.00.
Same read-out and setting: for `CC(C)OC(=O)[C@@H](Cn1cncn1)OC(=O)N[C@@H](C)c1ccc(C(C)(C)C)cc1` [Compound 6, Propan-2-yl (2R)-2-({[(1S)-1-(4-tert-butylphenyl)ethyl]carbamoyl}oxy)-3-(1H-1,2,4-triazol-1-yl)propanoate] the value was above 6.00; for `CC(C)OC(=O)[C@@H](Cc1ncccn1)OC(=O)N[C@@H](C)c1ccc(C(F)(F)F)cc1Cl` [Compound 25, Propan-2-yl (2R)-2-({[(1S)-1-[2-chloro-4-(trifluoromethyl)phenyl]ethyl]carbamoyl}oxy)-3-(pyrimidin-2-yl)propanoate], above 6.00; for `CC(C)OC(=O)[C@@H](Cn1cncn1)OC(=O)N[C@@H](C)c1ccc(C(F)(F)F)cc1` [Compound 11, Propan-2-yl (2R)-3-(1H-1,2,4-triazol-1-yl)-2-({[(1S)-1-[4-(trifluoromethyl)phenyl]ethyl]carbamoyl}oxy)propanoate], above 6.00.
Still for that read-out and setting: for `CCc1cc(C(F)(F)F)ccc1C(C)NC(=O)OC(Cc1ncccn1)C(=O)OC(C)C` (centres unmarked) [Compound 22, Propan-2-yl 2-[({1-[2-ethyl-4-(trifluoromethyl)phenyl]ethyl}carbamoyl)oxy]-3-(pyrimidin-2-yl)propanoate] the value was above 6.00.
For `CC(C)OC(=O)[C@@H](Cn1cncn1)OC(=O)N[C@@H](C)c1ccc(COc2ccccc2)cc1` [Compound 8, Propan-2-yl (2R)-2-({[(1S)-1-[4-(phenoxymethyl)phenyl]ethyl]carbamoyl}oxy)-3-(1H-1,2,4-triazol-1-yl)propanoate], the pIC50 was 5.52 to 6.00.
Consider `CC(C)OC(=O)[C@@H](Cn1cncn1)OC(=O)N[C@@H](C)c1ccc(C(F)(F)F)nc1` [Compound 14, Propan-2-yl (2R)-3-(1H-1,2,4-triazol-1-yl)-2-({[(1S)-1-[6-(trifluoromethyl)pyridin-3-yl]ethyl]carbamoyl}oxy)propanoate], for which the IC50 lay in the range of 10 to 50 µM.
On to `CC(C)OC(=O)C(Cc1ncccn1)OC(=O)N[C@@H](C)c1ccc(C#N)cc1` (stereo partly drawn) [Compound 4, Propan-2-yl 2-({[(1S)-1-(4-cyanophenyl)ethyl]carbamoyl}oxy)-3-(pyrimidin-2-yl)propanoate], for which the pIC50 was 5.52 to 6.00.
Consider `CC(C)OC(=O)[C@@H](Cn1cncn1)OC(=O)N[C@H](C)c1ccc(C(F)(F)F)nc1` [Compound 15, Propan-2-yl (2R)-3-(1H-1,2,4-triazol-1-yl)-2-({[(1R)-1-[6-(trifluoromethyl)pyridin-3-yl]ethyl]carbamoyl}oxy)propanoate], for which the IC50 was in the range of 10 to 50 µM.
For `CC(C)OC(=O)[C@@H](Cc1ncccn1)OC(=O)N(C)[C@@H](C)c1ccc(C(F)(F)F)cc1Cl` [Compound 27, Propan-2-yl (2R)-2-({[(1S)-1-[2-chloro-4-(trifluoromethyl)phenyl]ethyl](methyl)carbamoyl}oxy)-3-(pyrimidin-2-yl)propanoate], the pIC50 is 5.52 to 6.00.
Still for that read-out and setting: for `CC(C)OC(=O)[C@@H](Cn1cncn1)OC(=O)N[C@@H](C)c1ccc(OCC(F)(F)F)cc1` [Compound 7, Propan-2-yl (2R)-3-(1H-1,2,4-triazol-1-yl)-2-({[(1S)-1-[4-(2,2,2-trifluoroethoxy)phenyl]ethyl]carbamoyl}oxy)propanoate] the value was above 6.00.
For `CCCC(NC(=O)OC(Cc1ncccn1)C(=O)OC(C)C)c1ccc(C(F)(F)F)cc1` (centres unmarked) [Compound 21, Propan-2-yl 3-(pyrimidin-2-yl)-2-[({1-[4-(trifluoromethyl)phenyl]butyl}carbamoyl)oxy]propanoate], the IC50 fell in the range of 1 to 3 µM.
Consider `CC(C)OC(=O)[C@@H](Cn1cncn1)OC(=O)N[C@@H](C)c1ccc(C(F)(F)F)c(F)c1` [Compound 9, Propan-2-yl (2R)-2-({[(1S)-1-[3-fluoro-4-(trifluoromethyl)phenyl]ethyl]carbamoyl}oxy)-3-(1H-1,2,4-triazol-1-yl)propanoate], for which the pIC50 is above 6.00.
Still for that read-out and setting: for `CCOC(=O)C(Cn1cccn1)OC(=O)N[C@@H](C)c1ccc(Cl)cc1` (stereo partly drawn) [Compound 1, Ethyl 2-({[(1S)-1-(4-chlorophenyl)ethyl]carbamoyl}oxy)-3-(1H-pyrazol-1-yl)propanoate] the value was 4.30 to 5.00.
